Assay: recombinant UMI read abundance after kanamycin selection (control-corrected) (log10(CPM+1)); higher = more efficient recombination; extreme values may be limits of the assay; sequences stand for … in AGTGCAGAGAAAATCGGCCAGTTTTCTCTGCCTGCAGTCCGCATGCCGTGGGACCCCTTGGGTTCTAACCTGTTGCCTAGATTTATGCAGCGGACTGCCTTTCTCCCAAAGTGATAAACCGG…AGGTTGGTTTCACT; site = the 11-nt donor
Method: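 Pooled E. coli donor-specificity screen for the IS621 bridge recombinase. Each library member carries a reprogrammed 11-nt donor and a full-length LE bridge RNA expressed in cis from the natural promoter, with a paired donor-binding loop (8-nt LDG + 4-nt RDG) and a target-binding loop fixed to T5. It is co-electroporated with a T5 target plasmid; recombinase is induced with 0.07 mM IPTG and recombinants are selected on kanamycin. UMIs are counted as CPM, averaged over two biological replicates and corrected by the unselected control. Molecule = full bridge RNA written as DNA, built from the T5 scaffold: LDG = donor specificity nt 1-8, RDG = reverse complement of nt 8-11.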
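Further: IS621 bridge recombinase in Escherichia coli cells against a fixed T5 target plasmid.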

Row | Sequence | recombinant UMI read abundance (log10)
1 | AAGCATACATGGACCGGTTTTCCCGGTAATCCGTATTTGAC (site AAGCATACTGT) | 2.88
2 | AAGCCCGCATGGACCGGTTTTCCCGGTAATCCGTATTTGGG (site AAGCACGCTCC) | 0.00486
3 | AAGCCCGCATGGACCGGTTTTCCCGGTAATCCGTATTTGGG (site AAGCCCGCTCC) | 0.0203
4 | AAGCCCGCATGGACCGGTTTTCCCGGTAATCCGTATTTGGG (site AAGCGCGCTCC) | 0.0392
5 | AAGCCCGCATGGACCGGTTTTCCCGGTAATCCGTATTTGGG (site AAGCTCGCTCC) | 0.0406
6 | AAGCCGGCATGGACCGGTTTTCCCGGTAATCCGTATTTGGC (site AAGCCGGCTGC) | 0
7 | AAGCGCTCATGGACCGGTTTTCCCGGTAATCCGTATTTGCG (site AAGCGCTCTCG) | 2.26
8 | AAGGAAACATGGACCGGTTTTCCCGGTAATCCGTATTTGCA (site AAGGAAACTTG) | 2.06
9 | AAGGAATCATGGACCGGTTTTCCCGGTAATCCGTATTTGCG (site AAGGAATCTCG) | 3.14
10 | AAGGAATCATGGACCGGTTTTCCCGGTAATCCGTATTTGCG (site CAGGAATCTCG) | 2.38
11 | AAGGAATCATGGACCGGTTTTCCCGGTAATCCGTATTTGCG (site GAGGAATCTCG) | 2.74
12 | AAGGAATCATGGACCGGTTTTCCCGGTAATCCGTATTTGCG (site TAGGAATCTCG) | 3.08
13 | AAGGACTCATGGACCGGTTTTCCCGGTAATCCGTATTTGTT (site AAGGACTCTAA) | 2.9
14 | AAGGAGCCATGGACCGGTTTTCCCGGTAATCCGTATTTGGG (site AAGGAGCCTCC) | 0.00843
15 | AAGGATGCATGGACCGGTTTTCCCGGTAATCCGTATTTGTG (site AAGGATGCTCA) | 2.3
16 | AAGGCGACATGGACCGGTTTTCCCGGTAATCCGTATTTGGA (site AAGGCGACTTC) | 0.0223
17 | AAGGGCCCATGGACCGGTTTTCCCGGTAATCCGTATTTGGC (site AAGGGCCCTGC) | 0.674
18 | AAGGGGTCATGGACCGGTTTTCCCGGTAATCCGTATTTGAT (site AAGGGGTCTAT) | 2.94
19 | AAGGGTTCATGGACCGGTTTTCCCGGTAATCCGTATTTGTC (site AAGGGTTCTGA) | 2.5
20 | AAGGTTGCATGGACCGGTTTTCCCGGTAATCCGTATTTGCA (site AAGGTTGCTTG) | 2.22
21 | AAGTAACCATGGACCGGTTTTCCCGGTAATCCGTATTTGGA (site AAGTAACCTTC) | 0.105
22 | AAGTACGCATGGACCGGTTTTCCCGGTAATCCGTATTTGGG (site AAGAACGCTCC) | 0.14
23 | AAGTACGCATGGACCGGTTTTCCCGGTAATCCGTATTTGGG (site AAGCACGCTCC) | 0.0289
24 | AAGTACGCATGGACCGGTTTTCCCGGTAATCCGTATTTGGG (site AAGGACGCTCC) | 0.492

Row | Sequence | recombinant UMI read abundance (log10)
25 | AAGTACGCATGGACCGGTTTTCCCGGTAATCCGTATTTGGG (site AAGTACGCTCC) | 0.423
26 | AAGTCCACATGGACCGGTTTTCCCGGTAATCCGTATTTGCT (site AAGTCCACTAG) | 1.56
27 | AAGTTACCATGGACCGGTTTTCCCGGTAATCCGTATTTGAC (site AAGTTACCTGT) | 0
28 | AATAGCCCATGGACCGGTTTTCCCGGTAATCCGTATTTGAC (site AATAGCCCTGT) | 1.07
29 | AATAGTGCATGGACCGGTTTTCCCGGTAATCCGTATTTGAG (site AATAGTGCTCT) | 1.4
30 | AATATAGCATGGACCGGTTTTCCCGGTAATCCGTATTTGCC (site AATATAGCTGG) | 1.53
31 | AATATGACATGGACCGGTTTTCCCGGTAATCCGTATTTGTG (site AATATGACTCA) | 0.774
32 | AATCACCCATGGACCGGTTTTCCCGGTAATCCGTATTTGCT (site AATCACCCTAG) | 0.532
33 | AATCATACATGGACCGGTTTTCCCGGTAATCCGTATTTGGT (site AATCATACTAC) | 0.556
34 | AATCTCACATGGACCGGTTTTCCCGGTAATCCGTATTTGCT (site AATCTCACTAG) | 1.64
35 | AATCTCCCATGGACCGGTTTTCCCGGTAATCCGTATTTGCT (site AATCTCCCTAG) | 0.736
36 | AATGAGTCATGGACCGGTTTTCCCGGTAATCCGTATTTGAC (site AATGAGTCTGT) | 3.25
37 | AATGAGTCATGGACCGGTTTTCCCGGTAATCCGTATTTGAC (site AATGCGTCTGT) | 0
38 | AATGAGTCATGGACCGGTTTTCCCGGTAATCCGTATTTGAC (site AATGGGTCTGT) | 0
39 | AATGAGTCATGGACCGGTTTTCCCGGTAATCCGTATTTGAC (site AATGTGTCTGT) | 0.822
40 | AATGAGTCATGGACCGGTTTTCCCGGTAATCCGTATTTGAT (site AATGAGTCTAT) | 2.52
41 | AATGATCCATGGACCGGTTTTCCCGGTAATCCGTATTTGCG (site AATGATCCTCG) | 0.677
42 | AATGGCCCATGGACCGGTTTTCCCGGTAATCCGTATTTGTA (site AATGGCCCTTA) | 0.0128
43 | AATGTAACATGGACCGGTTTTCCCGGTAATCCGTATTTGAT (site AATGTAACTAA) | 0.00583
44 | AATGTAACATGGACCGGTTTTCCCGGTAATCCGTATTTGAT (site AATGTAACTAC) | 0.00741
45 | AATGTAACATGGACCGGTTTTCCCGGTAATCCGTATTTGAT (site AATGTAACTAG) | 0.00602
46 | AATGTAACATGGACCGGTTTTCCCGGTAATCCGTATTTGAT (site AATGTAACTAT) | 2.15
47 | AATGTAACATGGACCGGTTTTCCCGGTAATCCGTATTTGCA (site AATGTAACTAG) | 0
48 | AATGTAACATGGACCGGTTTTCCCGGTAATCCGTATTTGCA (site AATGTAACTCG) | 0.0207

Row | Sequence | recombinant UMI read abundance (log10)
49 | AATGTAACATGGACCGGTTTTCCCGGTAATCCGTATTTGCA (site AATGTAACTGG) | 0
50 | AATGTAACATGGACCGGTTTTCCCGGTAATCCGTATTTGCA (site AATGTAACTTG) | 1.78
51 | AATGTAACATGGACCGGTTTTCCCGGTAATCCGTATTTGCC (site AATGTAACTAG) | 0
52 | AATGTAACATGGACCGGTTTTCCCGGTAATCCGTATTTGCC (site AATGTAACTCG) | 0
53 | AATGTAACATGGACCGGTTTTCCCGGTAATCCGTATTTGCC (site AATGTAACTGG) | 2.15
54 | AATGTAACATGGACCGGTTTTCCCGGTAATCCGTATTTGCC (site AATGTAACTTG) | 1.34
55 | AATGTAACATGGACCGGTTTTCCCGGTAATCCGTATTTGGT (site AATGTAACTAA) | 0.557
56 | AATGTAACATGGACCGGTTTTCCCGGTAATCCGTATTTGGT (site AATGTAACTAC) | 1.36
57 | AATGTAACATGGACCGGTTTTCCCGGTAATCCGTATTTGGT (site AATGTAACTAG) | 0
58 | AATGTAACATGGACCGGTTTTCCCGGTAATCCGTATTTGGT (site AATGTAACTAT) | 0.468
59 | AATGTAGCATGGACCGGTTTTCCCGGTAATCCGTATTTGCT (site AATGTAACTAG) | 0
60 | AATGTAGCATGGACCGGTTTTCCCGGTAATCCGTATTTGCT (site AATGTACCTAG) | 0
61 | AATGTAGCATGGACCGGTTTTCCCGGTAATCCGTATTTGCT (site AATGTAGCTAG) | 1.55
62 | AATGTAGCATGGACCGGTTTTCCCGGTAATCCGTATTTGCT (site AATGTATCTAG) | 0.516
63 | AATGTATCATGGACCGGTTTTCCCGGTAATCCGTATTTGAC (site AATGTATCTGT) | 3.11
64 | AATGTATCATGGACCGGTTTTCCCGGTAATCCGTATTTGAC (site AATGTCTCTGT) | 0
65 | AATGTATCATGGACCGGTTTTCCCGGTAATCCGTATTTGAC (site AATGTGTCTGT) | 0
66 | AATGTATCATGGACCGGTTTTCCCGGTAATCCGTATTTGAC (site AATGTTTCTGT) | 0
67 | AATGTCGCATGGACCGGTTTTCCCGGTAATCCGTATTTGGT (site AATGTCGCTAC) | 1.19
68 | AATGTGCCATGGACCGGTTTTCCCGGTAATCCGTATTTGAC (site AATGTGACTGT) | 0
69 | AATGTGCCATGGACCGGTTTTCCCGGTAATCCGTATTTGAC (site AATGTGCCTGT) | 0
70 | AATGTGCCATGGACCGGTTTTCCCGGTAATCCGTATTTGAC (site AATGTGGCTGT) | 0
71 | AATGTGCCATGGACCGGTTTTCCCGGTAATCCGTATTTGAC (site AATGTGTCTGT) | 0
72 | AATGTGCCATGGACCGGTTTTCCCGGTAATCCGTATTTGCT (site AATGTGCCTAG) | 0.0116
